Literature values as cited in patent publication US20130078290A1, “Gastroretentive Dosage Forms Of GABA Analogs” (Rubicon Research Private Limited, priority 2010, published 2013).

Legend:
[1] = for Elimination half-life: in vivo
[2] = in water and in acidic and basic aqueous solutions

SMILES | Oral bioavailability ([1]; dose in range of 300-400 mg) | Elimination half-life [1] | Solubility [2]
NCC1(CC(=O)O)CCCCC1 [gabapentin, 1-(Aminomethyl)cyclohexaneacetic acid] | approximately 60% | 5 to 7 h | freely soluble
CC(C)CC(CN)CC(=O)O (centres unmarked) [pregabalin, 5-methyl-3-aminomethyl-hexanoic acid] |  | about 6.3 hours | freely soluble
